The text below walks through data of US8518995B2, “Methods and compositions for the treatment of irritable bowel syndrome” (MediciNova, Inc., priority 2010, dated 2013).

Data set [1] relates to subjects with the irritable bowel syndrome (IBS). As to the kind of experiment: Effects of MN-221 on rectosigmoid motility (intraluminal pressure, systemic effects, plasma levels) in IBS subjects. The data set is classed as in vivo, human. The text has this:
In this study, subjects with the irritable bowel syndrome (IBS) are studied with regard to the effects of MN-221 on rectosigmoid motility.
Men and women aged 24-52 years are included in the study. The diagnosis of IBS is made on the basis of the following criteria: 1) symptoms lasting more than few months; 2) abdominal pain with or without relation to meals; 3) constipation or a combination of diarrhea and constipation; 4) normal colonic barium enema and sigmoidoscopy; 5) negative test for lactose intolerance; and 6) negative finding on stool culture.
The subjects are all symptomatic at the time of the study. The subjects are taking no medications of significant importance for intestinal motility. Informed consent is obtained from each subject.
After a 12 hours fast, all subjects undergo sigmoidoscopy without air insufflations. A probe with one to three polyethylene catheters is inserted through the sigmoidoscope so that the proximal catheter is about 18-20 centimeter (cm) from the anal margin, the tip of the second catheter about 5 cm below, and the third catheter is positioned just inside the internal sphincter. An about 5-cm-long balloon surrounds each of the two distal catheters. The distal balloon is inflated with about 20 milliliter (mL) of air to prevent the device from moving in the distal direction. The balloon in the upper rectum, connected to the middle catheter, is kept inflated with about 80 ml of air in 10 of the subjects and with about 60 mL in the other 2 subjects throughout the recording sessions. Each subject has the same balloon volume during the three examinations.
Intra-luminal pressure is measured from the proximal rectal balloon and the sigmoid catheter (inside diameter, about 1.67 millimeter (mm)), which is open tipped with a side orifice of about 1.5 mm diameter.
The catheter is continuously perfused with body-temperature water at 3.5 mL/h by means of an infusion pump. Pressure is transmitted to transducers (e.g., Statham P 23 Db, Statham Instruments, Hato Ray, Puerto Rico) and recorded on a Grass RPS 7C polygraph (e.g., Grass Instrument Co., Quincy, Mass.). To determine motility, the area under the pressure curves is continuously determined by integrators (such as, e.g., Grass 7P 10). As an index of contractile activity, the total area minus the area under an estimated basal pressure line is used. The principle for motility calculation is described in detail in Abrahamsson et al. Dig Dis Sci 1983, 28, 590-594.
Motility index is expressed as kPa×min (1 kPa×min=7.5 mm Hg×min). The study is randomized and double blinded. Each subject is investigated on 3 different days with not less than 5 days between each investigation to avoid any possible influence of an earlier drug infusion. After an initial rest period of 30 minutes (min), pressure is quantified for three periods of 25 min. The first period, designated the control period, is preceded by saline infusion, 1 mL/min, for 5 min. The following two test periods are each preceded by an infusion of 0.25 mg MN-221 intravenously to a total amount of 0.50 mg on the 1st day, 1.0 mg on the 2nd day, and 5 ml placebo (plus 5 mL saline) on the 3rd day.
The blood pressure and heart rate are measured by a sphygmomanometer 10 and 25 min after the end of each drug infusion. […]
Results are expressed as the mean±SEM. […]
The plasma concentration of MN-221 is determined by liquid chromatography and mass spectrometry.

Data set [2] deals with subjects suffering from IBS. The data set is described as follows: Effects of MN-221 on human esophageal peristalsis (manometry, heart rate, finger tremor) in IBS subjects. Format: in vivo. An excerpt:
This study investigates the inhibitory influence of beta-2-adrenergic stimulation by MN-221 on esophageal motility with little to no incidence of significant adverse side effects. In the study, esophageal peristalsis is studied in subjects suffering from IBS. The subjects have no history of gastrointestinal or cardiovascular disease. Subjects are considered to have the irritable bowel syndrome if they have an abdominal pain with or without diarrhea or constipation. Relief of pain by defecation, abdominal distension, a feeling of incomplete evacuation, and/or a response to a high-residue diet are taken as useful additional symptoms. The blood picture, erythrocyte sedimentation rate, and results of sigmoidoscopy, rectal biopsy, and barium enema are normal in all subjects. The symptoms of the subjects, including dysphagia and heartburn, are recorded on data sheets for correlation with manometric findings.
Each subject is orally given MN-221, 5 mg three times daily, for 10 days. […] At each session esophageal peristaltic pressure, heart rate, and finger tremor are assessed.
Manometric studies are performed with a triple-lumen tube with each channel perfused with water, 0.5 ml/min, via a low-compliance capillary system. […] Thus, pressure is recorded about 18 cm proximal to the LES (proximal esophagus), about 10 cm proximal to the LES (middle esophagus), and about 2 cm proximal to the LES (distal esophagus).
After a resting period of 20 min., esophageal peristalsis in response to 20 wet swallows (water bolus of 5 ml, room temperature) is recorded. […] Each recording curve is coded and read by one investigator who is not aware of the subject's study day. The amplitude of the peristaltic pressure waves is measured at each recording point, and an individual mean value for the 20 swallows is calculated for each examination.
At each session, heart rate is recorded in the resting subject and calculated as a mean value for 2 min. Finger tremor are assessed with an optical method (e.g., Opto-Tremor Graph, Draco), and the middle finger of the right hand is chosen for measurement. […]

Data set [3] has as its system subjects with the irritable bowel syndrome (IBS). The following applies: including increase in systolic blood pressure and the heart rate; cited from earlier work.
The subject of data set [4] is subjects suffering from IBS. The settings on record: including increase in the heart rate and finger tremors; cited from earlier work.
Where [5] appears, read: during oral medication, 5 mg three times daily, 10 days.

Each structure is given as a SMILES string.

With `CN(C)C(=O)COc1ccc2c(c1)CC(NCC(O)c1ccc(O)c(CCO)c1)CC2` (single isomer, unassigned; (-)) [MN-221], in data set [1] (after infusion of MN-221), the “complaints or discomfort among the subjects” value is reported as “No major complaints or discomfort”. The plasma concentrations entry in data set [1] (after intravenous infusion, 0.50 and 1.0 mg total) is listed as “within the therapeutic levels”. Also, the “systolic and diastolic blood pressure and heart rate” value in data set [1] (infusion to a total of 0.50 mg intravenously) is listed as “no significant increase in the systolic blood pressure; decrease in the diastolic blood pressure; and/or increase in the heart rate”; in data set [1] (infusion to a total of 1.0 mg intravenously), “no significant increase in systolic blood pressure; decrease in diastolic blood pressure; and/or increase in heart rate”. Moreover, the adverse side effects entry in data set [1] (intravenous infusion, IBS subjects) was “little to no adverse side effects”; in data set [2] (oral medication, IBS subjects) it was “little to no adverse side effects”. Moreover, the finger tremor entry in data set [2] (setting [5]) is “do not change”. Further, the heart rate result in data set [2] (setting [5]) is listed as “do not change”.
With `CC(C)(C)NCC(O)c1cc(O)cc(O)c1` (stereo not shown) [terbutaline], the “adverse side effects (comparison drug)” value in data set [3] and in data set [4] was “undesirable incidence of significant adverse side effects” in each case.
